Legend:
Format in all cases: cell-based
[1] = tested on: activation protein-1 (AP-1); test: Activity inhibition test of AP-1, Coll-CAT reporter in HaCAT cells; conditions: c-Jun expression, in the presence of retinoic acid receptor α, CAT ELISA, FIG. 6
Procedure: Since the activation protein-1 (c-Jun is the constituent of AP-1) is transcription factor inducing expression of collagenase enzyme, which is a major cause of skin wrinkle, the effect of wrinkle prevention was determined by the activity inhibition test of AP-1.
CAT reporter (Coll-CAT) containing collagen promoter including AP-1 transcription factor binding site (TRE) were utilized to cotransfect skin cancer (HaCAT) cell line. The effect of retinol derivatives on the activity of AP-1 was measured by CAT ELISA. In some cases, the vector expressing c-Jun or retinoic acid receptors were utilized to cotransfect, and the effect of retinol derivatives on the transcription activity of c-Jun was analyzed.
With the assumption of the prepared retinol-(N-formyl-aspartam) derivatives which inhibit the activity of AP-1 causing skin wrinkle, would have the utility for cosmetics, the related investigations were proceeded. Similar to the experiment of retinoic acid receptor, AP-1 (c-jun) expression vector and Coll-CAT plasmid for the activity measurement were introduced into the skin cancer (HaCAT) cell line with liposome. After treating the cells with retinol-(N-formyl-aspartam) derivatives, the cell extracts were isolated. The expression level of CAT were measured with CAT ELISA to determine the effect of retinol-(N-formyl-aspartam) on the activity of the AP-1.

[2] = biological target: T1, retinoic acid receptor α (Homo sapiens, UniProt P10276); test: RAR activity test, DR5-tk-CAT reporter in HaCAT cells; conditions: 1 μM, CAT ELISA, FIG. 2 (A)
T1 construct: expressed in transfected cells; b135 says HaCAT
T1 sequence (P10276 1-462): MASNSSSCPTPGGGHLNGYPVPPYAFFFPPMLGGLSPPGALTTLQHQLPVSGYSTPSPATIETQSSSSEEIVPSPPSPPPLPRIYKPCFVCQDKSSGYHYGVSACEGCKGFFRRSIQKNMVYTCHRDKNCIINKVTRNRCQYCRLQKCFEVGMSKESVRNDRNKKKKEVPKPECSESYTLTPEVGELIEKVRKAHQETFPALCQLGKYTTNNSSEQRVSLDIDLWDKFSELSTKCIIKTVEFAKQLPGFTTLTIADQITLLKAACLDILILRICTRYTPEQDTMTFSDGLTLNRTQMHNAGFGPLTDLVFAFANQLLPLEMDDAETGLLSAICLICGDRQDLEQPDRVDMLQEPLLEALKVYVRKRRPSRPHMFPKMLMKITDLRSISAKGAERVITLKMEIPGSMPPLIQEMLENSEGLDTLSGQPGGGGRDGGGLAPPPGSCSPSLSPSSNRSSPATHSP
Text: (§1) To analyze the effects of retinol-(N-formyl-aspartam) on the activity of retinoic acid receptor, skin cancer (HaCAT) cell lines were utilized to measure the activity of retinoic acid receptor/retinoid X receptor.
(§2) Recombinant DNA, DR5-tk-CAT or DR1-tk-CAT consisting of DR1 or DR5, effectors of retinoic acid receptor/retinoid X receptor, thymine kinase promoter, and CAT(chloramphenicol acetyl transferase) were mixed with the plasmid DNA expressing retinoic acid receptor α, β, ? or retinoid X receptor α, β, ? to cotransfect skin cancer (HaCAT) cell line with lipofectamine (GibcoBRL). The cotransfected cell lines were cultured for 1 day on DMEM/10% FBS media, each retinol derivatives (1 μM) were added and cultured for one more day, 5% CO2, 37° C. The cells were washed with phosphate-buffered saline (PBS), and the proteins were isolated from each cells, and the activity of β-galactosidase and protein contents were measured to determine transfection efficacy, the transcription level of RAR or RXR receptor were measured with CAT ELISA (Roche Molecular Biochemical, Mannheim, Germany).
(§3) To determine the effect of retinol-(N-formyl-aspartam) on retinoic acid receptors, each retinoic acid receptor (α, β, or ? ) expression vector and activity measuring DR5-tk-CAT plasmid were introduced with liposome. After treating cells with retinol-(N-formyl-aspartam), the cell extracts were isolated. The expression level of CAT were measured with CAT ELISA to determine the effect of retinol-(N-formyl-aspartam) on the activity of retinoic acid receptors.

[3] = biological target: T2, retinoic acid receptor β (Homo sapiens, UniProt P10826); test: as above; conditions: 1 μM, CAT ELISA, FIG. 2 (A)
T2 construct: expressed in transfected cells; b135 says HaCAT
T2 sequence (P10826 1-455): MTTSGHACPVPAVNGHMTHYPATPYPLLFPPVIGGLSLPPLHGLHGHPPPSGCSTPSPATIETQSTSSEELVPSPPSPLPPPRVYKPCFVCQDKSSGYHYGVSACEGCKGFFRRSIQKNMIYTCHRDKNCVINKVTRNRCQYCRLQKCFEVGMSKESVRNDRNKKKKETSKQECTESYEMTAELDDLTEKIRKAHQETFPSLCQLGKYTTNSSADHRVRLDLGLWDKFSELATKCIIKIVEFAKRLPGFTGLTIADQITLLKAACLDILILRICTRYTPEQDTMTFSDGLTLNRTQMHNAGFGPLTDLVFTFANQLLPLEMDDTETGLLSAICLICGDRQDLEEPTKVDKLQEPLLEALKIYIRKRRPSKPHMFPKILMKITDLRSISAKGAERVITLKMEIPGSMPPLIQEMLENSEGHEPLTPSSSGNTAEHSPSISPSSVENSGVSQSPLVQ
Text: as §1, §2, §3

[4] = biological target: T3, retinoic acid receptor γ (Homo sapiens, UniProt P13631); test: as above; conditions: 1 μM, CAT ELISA, FIG. 2 (A)
T3 construct: expressed in transfected cells; b135 says HaCAT
T3 sequence (P13631 1-454): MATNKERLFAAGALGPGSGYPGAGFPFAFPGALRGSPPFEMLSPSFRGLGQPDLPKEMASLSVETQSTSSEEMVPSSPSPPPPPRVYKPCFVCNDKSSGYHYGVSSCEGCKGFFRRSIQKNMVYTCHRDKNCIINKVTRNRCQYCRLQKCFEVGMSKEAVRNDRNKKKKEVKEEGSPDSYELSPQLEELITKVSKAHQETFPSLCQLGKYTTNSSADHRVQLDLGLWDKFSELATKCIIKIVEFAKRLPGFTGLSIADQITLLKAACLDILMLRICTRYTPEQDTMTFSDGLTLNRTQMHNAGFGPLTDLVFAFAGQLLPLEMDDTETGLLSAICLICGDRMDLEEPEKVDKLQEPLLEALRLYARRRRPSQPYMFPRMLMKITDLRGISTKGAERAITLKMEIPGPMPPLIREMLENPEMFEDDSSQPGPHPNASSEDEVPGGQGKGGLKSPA
Text: as §1, §2, §3

COC(=O)C(Cc1ccccc1)NC(=O)[C@H](CC(=O)OC/C=C(C)/C=C/C=C(C)/C=C/C1=C(C)CCCC1(C)C)NC=O (stereo partly drawn) [retinol-(N-formyl-aspartam), (2E,4E,6E,8E)-3,7-dimethyl-9-(2,6,6-trimethyl-1-cyclohexenyl)-2,4,6,8-nonatetraenyl(3S)-4-[(1-benzyl-2-methoxy-2-oxoethyl)amino]-3-formylamino-4-oxobutanoate]
lowered the expression of collagenase (Coll-CAT) [1]: ~44%
activation of retinoic acid receptor α [2]: high activation
activation of retinoic acid receptor β [3]: weak activation
activation of retinoic acid receptor γ [4]: weak activation

Reference: patent US7030265B2, “Retinol derivatives, the method of preparations and the uses thereof” (Chebigen, Inc., priority 2001, dated 2006)
